Laboratory results taken from the supplement of paper PMC6045584.
± gives the standard deviation of the averaged measurements.

How the values were obtained:
[1] = compound: COc1cc2c(cc1O)CC[C@@H]1[C@@H]2CC[C@]2(C)[C@@H](O)CC[C@@H]12 [2-METHOXYESTRADIOL]; test: surviving fraction relative to DMSO-only wells; higher = less growth inhibition; details: exposure time: 5 days
Method in brief: (§1)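 Inhibitors were tested at 0.5, 1, 5, 10, 50, 100, 500 and 1000 nM, applied continuously for five days beginning 24 hours after log-phase tumour cells were seeded at 250–500 per well in 384-well plates. CellTiter-Glo luminescence served as the viability measure, expressed as surviving fraction against the median of DMSO-only wells. Each line, screened three times, was kept only with replicate Pearson r >0.7 and median Z' >0.3.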

[2] = compound: COc1ccc(C2=N[C@@H](c3ccc(Cl)cc3)[C@@H](c3ccc(Cl)cc3)N2C(=O)N2CCNC(=O)C2)c(OC(C)C)c1 [NUTLIN3]; test: as above; details: exposure time: 5 days
Method in brief: as §1

Test System	surviving fraction ([1]; 0.5 nM)	surviving fraction ([1]; 1 nM)	surviving fraction ([1]; 5 nM)	surviving fraction ([1]; 10 nM)	surviving fraction ([1]; 50 nM)	surviving fraction ([1]; 100 nM)	surviving fraction ([1]; 500 nM)	surviving fraction ([1]; 1000 nM)	surviving fraction ([2]; 0.5 nM)	surviving fraction ([2]; 1 nM)	surviving fraction ([2]; 5 nM)	surviving fraction ([2]; 10 nM)	surviving fraction ([2]; 50 nM)	surviving fraction ([2]; 100 nM)	surviving fraction ([2]; 500 nM)	surviving fraction ([2]; 1000 nM)
22RV1 PROSTATE	1.01 ± 0.057	1.09 ± 0.17	1.04 ± 0.07	1.07 ± 0.15	1.03 ± 0.073	0.903 ± 0.16	0.791 ± 0.18	0.646 ± 0.068	1.01 ± 0.046	1.04 ± 0.013	0.96 ± 0.068	0.99367 ± 0.00058	0.981 ± 0.079	1.01 ± 0.074	0.95 ± 0.062	0.777 ± 0.047
93VU HEADNECK	0.864 ± 0.13	0.829 ± 0.072	1.07 ± 0.096	1.14 ± 0.062	1.09 ± 0.058	0.921 ± 0.017	0.741 ± 0.049	0.788 ± 0.034	1 ± 0.12	0.982 ± 0.14	1.09 ± 0.1	1.1 ± 0.076	1.12 ± 0.12	1.21 ± 0.013	1.05 ± 0.12	1.02 ± 0.025
143B BONE	1.04 ± 0.049	1.06 ± 0.054	1.1 ± 0.071	1.09 ± 0.073	1.08 ± 0.071	1.09 ± 0.046	0.536 ± 0.069	0.159 ± 0.016	1.04 ± 0.019	1.02 ± 0.022	1.03 ± 0.029	1.024 ± 0.0085	1.06 ± 0.039	1.029 ± 0.0099	1.05 ± 0.017	1.01 ± 0.073
A549 LUNG	0.991 ± 0.016	0.9623 ± 0.0067	0.983 ± 0.018	0.945 ± 0.021	1.02 ± 0.043	1.05 ± 0.015	0.992 ± 0.025	0.544 ± 0.028	0.984 ± 0.03	0.996 ± 0.031	0.963 ± 0.026	0.953 ± 0.016	1.01 ± 0.084	1.02 ± 0.019	1.04 ± 0.053	1.08 ± 0.061
ASKA SYNOVIAL	1.07 ± 0.086	1.08 ± 0.068	1.05 ± 0.054	1.07 ± 0.054	1.1 ± 0.049	1.03 ± 0.066	0.503 ± 0.039	0.353 ± 0.015	1.04 ± 0.04	1.13 ± 0.039	1.2 ± 0.055	1.03 ± 0.015	1.02 ± 0.064	1.05 ± 0.041	0.748 ± 0.035	0.512 ± 0.014
BT20 BREAST	1.08 ± 0.068	1.09 ± 0.062	1.07 ± 0.082	1.05 ± 0.076	1.24 ± 0.14	1.11 ± 0.067	1.13 ± 0.044	0.662 ± 0.048	1.1 ± 0.18	1.11 ± 0.14	1.09 ± 0.07	1.01 ± 0.14	1.05 ± 0.24	1.07 ± 0.23	1.15 ± 0.25	1.12 ± 0.18
BT549 BREAST	0.974 ± 0.087	1.05 ± 0.1	1.05 ± 0.12	1.02 ± 0.024	0.968 ± 0.17	1.08 ± 0.14	0.53 ± 0.092	0.106 ± 0.044	1.16 ± 0.13	1.07 ± 0.11	1.07 ± 0.063	1.12 ± 0.11	1.18 ± 0.1	1.07 ± 0.067	1.17 ± 0.13	1.08 ± 0.25
C33A CERVIX	0.689 ± 0.038	0.772 ± 0.04	0.918 ± 0.1	1.03 ± 0.055	0.965 ± 0.031	0.964 ± 0.055	0.482 ± 0.087	0.595 ± 0.028	0.888 ± 0.04	0.928 ± 0.034	0.919 ± 0.084	0.905 ± 0.039	0.978 ± 0.094	1.04 ± 0.055	0.959 ± 0.068	1.03 ± 0.094
CADOES1 SOFT TISSUE	0.795 ± 0.055	0.875 ± 0.099	0.846 ± 0.11	0.894 ± 0.18	0.886 ± 0.047	0.867 ± 0.15	0.964 ± 0.062	0.358 ± 0.098	0.96 ± 0.077	0.925 ± 0.056	0.982 ± 0.036	0.801 ± 0.17	0.841 ± 0.077	0.874 ± 0.037	0.741 ± 0.014	0.517 ± 0.017
CAL51 BREAST	0.949 ± 0.068	1.01 ± 0.081	0.992 ± 0.018	0.996 ± 0.063	0.967 ± 0.044	1 ± 0.046	0.48 ± 0.036	0.0988 ± 0.0065	0.944 ± 0.012	0.928 ± 0.059	0.999 ± 0.053	0.979 ± 0.018	1.05 ± 0.054	1.01 ± 0.038	0.816 ± 0.1	0.707 ± 0.09
